Reference: US6949531B2, “14 β, 16, 17-methylene steroids as novel androgens” (Akzo Nobel N.V., priority 2000, dated 2005)

Assays:
androgen receptor = assay: androgenic activity rating (procedures described above); design: key: +: androgenic activity found; ++: high androgenic activity; +++: excellent androgenic activity; conditions: rated according to scheme; test procedure not specified
Protocol: (§1) Androgenic activity can be measured in various ways. Thus, the potency of androgens can be determined in vitro using the cytoplasmic androgen receptor from human breast tumor cells (MCF-7 cell line); see Bergink, E. W. et al, Comparison of the receptor binding properties of nandrolone and testosterone under in vitro and in vivo conditions, J. Steroid Biochem. 22, 831-836 (1985). It is also possible to use Chinese hamster ovary (CHO) cells transfected with the human androgen receptor (incubation time 16 h, temperature 4° C.) and compared with the affinity of 5α-dihydrotestosterone [according to the procedure described by Bergink, E. W. et al, J. Steroid Biochem. 19, 1563-1570 (1983)]. The transactivative androgen activity of the compounds of the invention can be measured, e.g. in Chinese hamster ovary cells (CHO) transfected with the human androgen receptor (hAR), in combination with a mouse mammary tumor virus (MMTV), and luciferase […] gene (incubation time 16 h, temperature 37° C.) and compared with the activity of […] [according to the procedure described by Schoonen, W. G. E. J. et al, Analyt. Biochem. 261, 222-224 (1998)]. For the in vivo potency determination of androgens the classical Hershberger test can be used. In this test the androgenic (increase in prostate weight) and anabolic activities [increase of the musculus levator ani (MLA)] of a compound are tested in immature castrated rats after daily administration for 7 days; see Hershberger, L. G. et al, Myotrophic activity of 19-Nortestosteronie and other steroids determined by modified levator ani muscle method, Proceedings of the society for experimental biology and medicine 83, 175-180 (1953). Additionally, the effect of an androgenic compound on LH suppression can be tested in mature castrated rats according to Kumar, N. et al, The biological activity of 7alpha-methyl-19-nortestosterone is not amplified in male reproductive tract as is that of testosterone, Endocrinology 130, 3677-3683 (1992).
The compounds according to the invention were tested for androgenic activity (the procedures for which have been described above) and rated according to the following scheme: […]

[1] = target: T1, human androgen receptor (hAR) (Homo sapiens, UniProt P10275); assay: transactivative androgen activity in CHO cells transfected with hAR, MMTV and luciferase reporter gene; format: cell-based; conditions: MMTV, luciferase, incubation 16 h, 37° C., compared with the activity of dihydrotestosterone
T1 construct: expressed in transfected cells; host or cells: Chinese hamster ovary (CHO) cells
T1 sequence (P10275 1-920): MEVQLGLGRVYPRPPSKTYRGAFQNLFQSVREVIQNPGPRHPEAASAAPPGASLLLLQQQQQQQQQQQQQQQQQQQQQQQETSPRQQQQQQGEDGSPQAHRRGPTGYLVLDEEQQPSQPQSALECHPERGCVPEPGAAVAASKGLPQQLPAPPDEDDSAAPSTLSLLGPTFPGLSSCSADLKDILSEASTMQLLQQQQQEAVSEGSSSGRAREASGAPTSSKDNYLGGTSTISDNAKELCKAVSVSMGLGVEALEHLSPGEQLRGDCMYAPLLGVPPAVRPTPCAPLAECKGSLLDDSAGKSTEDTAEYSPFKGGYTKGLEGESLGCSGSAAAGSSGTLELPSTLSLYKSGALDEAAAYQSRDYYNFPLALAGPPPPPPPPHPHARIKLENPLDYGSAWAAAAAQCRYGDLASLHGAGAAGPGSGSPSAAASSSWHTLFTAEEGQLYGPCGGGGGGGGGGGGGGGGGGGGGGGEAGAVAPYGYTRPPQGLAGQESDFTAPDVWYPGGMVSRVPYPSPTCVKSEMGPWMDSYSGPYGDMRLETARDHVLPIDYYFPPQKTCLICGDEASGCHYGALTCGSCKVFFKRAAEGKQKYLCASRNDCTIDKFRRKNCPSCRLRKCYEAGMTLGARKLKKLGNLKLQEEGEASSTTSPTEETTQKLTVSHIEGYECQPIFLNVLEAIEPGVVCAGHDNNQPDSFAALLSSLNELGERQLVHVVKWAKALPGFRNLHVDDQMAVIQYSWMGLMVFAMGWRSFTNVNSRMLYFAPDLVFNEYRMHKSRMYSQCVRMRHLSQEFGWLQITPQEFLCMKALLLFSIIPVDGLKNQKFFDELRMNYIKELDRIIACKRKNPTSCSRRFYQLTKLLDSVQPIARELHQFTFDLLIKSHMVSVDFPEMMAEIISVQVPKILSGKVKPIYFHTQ
Protocol: as §1, with “Biochem. 261, 222-224 (1998)]. For the in vivo potency determination of androgens the classical Hershberger test can be used.” left out, “Additionally, the effect of an androgenic compound on LH suppression can be tested in mature castrated rats according to Kumar, N. et al, The biological activity of 7alpha-methyl-19-nortestosterone is not amplified in male reproductive tract as is that of testosterone, Endocrinology 130, 3677-3683 (1992).” left out
The transactivative androgen activity was determined in a comparison of the following compounds: the compound of Example 1 according to the invention, i.e. (7α,14β,16α,17α)-16,17-dihydro-17-(hydroxymethyl)-7-methyl-3′H-cyclopropa[16,17]estra-4,16-dien-3-one, and compounds denoted C1 and C2, not according to the invention, which respectively are (7α,14β,16β,17α)-17-(hydroxymethyl)-7,16-dimethylestr-4-en-3-one and (7α,14β,17α)-17-(hydroxymethyl)-7,17-dimethylestr-4-en-3-one as disclosed in WO 00/53619.

C[C@@H]1CC2=CC(=O)CC[C@@H]2[C@H]2CC[C@@]3(C)[C@H](C[C@@H]4C[C@@]43[C@H](C)O)[C@@H]21 [Example 2, (7α,14β,16α,17α,20S)-16,17-Dihydro-20-hydroxy-7-methyl-3′H-cyclopropa[16,17]-19-norpregna-4,16-dien-3-one]
Result (androgenic activity) (androgen receptor): ++

CC[C@H](O)[C@]12C[C@H]1C[C@@H]1[C@H]3[C@H](CC[C@@]12C)[C@H]1CCC(=O)C=C1C[C@H]3C [Example 3a, [7α,14β,16α,17α(20S)]-16,17-Dihydro-20-(1-hydroxypropyl)-7-methyl-3′H-cyclopropa [16,17]estra-4,16-dien-3-one]
Result (androgenic activity) (androgen receptor): ++

C[C@@H]1CC2=C[C@@H](O)CC[C@@H]2[C@H]2CC[C@@]3(C)[C@H](C[C@@H]4C[C@@]43CO)[C@@H]21 [Example 4, (3β,7α,14β,16α,17α)-16,17-Dihydro-17-(hydroxymethyl)-7-methyl-3′H-cyclopropa[16,17]estra-4,16-dien-3-ol]
Result (androgenic activity) (androgen receptor): (prodrug)

C[C@]12CC[C@H]3[C@@H](CCC4=CC(=O)CC[C@@H]43)[C@H]1C[C@@H]1C[C@@]12CO [Example 6, (14β,16α,17α)-16,17-Dihydro-17-(hydroxymethyl)-3′H-cyclopropa[16,17]estra-4,16-dien-3-one]
Result (androgenic activity) (androgen receptor): ++

CC1CC2=CC(=O)CCC2C2CCC3(C)C(CCC3(C)CO)C12 (stereo not drawn) [Example C2, (7α,14β,17α)-17-(hydroxymethyl)-7,17-dimethylestr-4-en-3-one]
Transactivative androgen activity [1]: 22

C[C@@H]1CC2=CC(=O)CC[C@@H]2[C@H]2CC[C@@]3(C)[C@H](C[C@H](C)[C@H]3CO)[C@@H]21 [Example C1, (7α,14β,16β,17α)-17-(hydroxymethyl)-7,16-dimethylestr-4-en-3-one]
Transactivative androgen activity [1]: 72

C[C@@H]1CC2=C/C(=N/O)CC[C@@H]2[C@H]2CC[C@@]3(C)[C@H](C[C@@H]4C[C@@]43CO)[C@@H]21 [Example 5a, (3E,7α,14β,16α,17α)-16,17-Dihydro-3-(hydroxyimino)-7-methyl-3′H-cyclopropa[16,17]estra-4,16-diene-17-methanol]
Result (androgenic activity) (androgen receptor): (prodrug)

C[C@@H]1CC2=C/C(=N\O)CC[C@@H]2[C@H]2CC[C@@]3(C)[C@H](C[C@@H]4C[C@@]43CO)[C@@H]21 [Example 5b, (3Z,7α,14β,16α,17α)-16,17-dihydro-3-(hydroxyimino)-7-methyl-3′H-cyclopropa[16,17]estra-4,16-diene-17-methanol]
Result (androgenic activity) (androgen receptor): (prodrug)

C[C@]12CC[C@H]3[C@@H](CC[C@H]4CC(=O)CC[C@@H]43)[C@H]1C[C@@H]1C[C@@]12CO [Example 7, (5α,14β,16α,17α)-16,17-Dihydro-17-(hydroxymethyl)-3′H-cyclopropa[16,17]estr-16-en-3-one]
Result (androgenic activity) (androgen receptor): ++

C[C@@H]1CC2=CC(=O)CC[C@@H]2[C@H]2CC[C@@]3(C)[C@H](C[C@@H]4C[C@@]43CO)[C@@H]21 [Example 1, (7α,14β,16α,17α)-16,17-Dihydro-17-(hydroxymethyl)-7-methyl-3′H-cyclopropa[16,17]estra-4,16-dien-3-one]
Result (androgenic activity) (androgen receptor): +++ | Transactivative androgen activity [1]: 263

C#C[C@H](O)[C@]12C[C@H]1C[C@@H]1[C@H]3[C@H](CC[C@@]12C)[C@H]1CCC(=O)C=C1C[C@H]3C [Example 3b, [7α,14β,16α,17α(20S)]-16,17-Dihydro-20-(1-hydroxy-2-propynyl)-7-methyl-3 ′H-cyclopropa[16,17]estra-4,16-dien-3-one]
Result (androgenic activity) (androgen receptor): ++
